Laboratory results as given in patent US10744134B2, “Pharmaceutical composition for cancer immunotherapy and/or immunological activation containing diamino heterocyclic carboxamide compound as active ingredient” (Astellas Pharma Inc., priority 2015, dated 2020).

What was measured:
[1] = test system: colon carcinoma cell line MC38; experiment: Tumor volume change in MC38 subcutaneous cancer-bearing mice (Example 2); format: in vivo, C57BL/6J mouse; details: hemifumarate, oral, 100 mg/kg (free form) once a day for seven days; individuals qd-2 and qd-3; measured on 4th and 7th days; FIG. 2
Method: (§1) Evaluation of Immune Activation of Compound a with Respect to Colon Carcinoma Cell Line MC38 Cancer-Bearing Model
(§2) MC38 subcutaneous cancer-bearing mice were prepared by subcutaneously transplanting MC38 cells on the back of C57BL/6J mouse (female, Charles river, Japan). After confirming the engraftment of the tumor, hemifumarate of the compound A, which is the test compound, was orally administered to seven mice at a dose of 100 mg/kg (in terms of free form) once a day for seven days. As a control, 0.5% of methylcellulose was also orally administered to seven mice at the same dose of 100 mg/kg once a day for seven days, which was the same administration as the group administered at a 100 mg/kg. After measuring the tumor volume change on the 4th and 7th days, spleens and tumors were collected from a total of six mice of three examples (control-1, control-2, and control-3) extracted from the control group and three examples extracted from the compound A administered groups (COMPOUND A 100 mg/kg qd-1, COMPOUND A 100 mg/kg qd-2, and COMPOUND A 100 mg/kg qd-3). Then, staining was performed with anti CD3 antibody (eBioscience), anti CD4 antibody (Biolegend), anti CD8 antibody (eBioscienec), anti CD45 antibody (Biolegend), and the number of positive cells of each antigen was measured using a flow cytometer (BD FACS Verse).

CD4+ and CD8+ T cells = experiment: Immune activation: flow cytometry of CD4+ and CD8+ T cells in spleen and tumor of MC38 cancer-bearing mice (Example 2); format: in vivo, C57BL/6J mouse; details: 100 mg/kg qd oral for seven days
Method: as §1, §2

[2] = test system: colon carcinoma cell line MC38; experiment: Anti-tumor evaluation (in vivo) in colon carcinoma cell line MC38 cancer-bearing model (Example 1); set-up: species or system C57BL/6J mice; details: hemifumarate of compound A, oral, vs control group, FIG. 1
Method: Evaluation of Anti-Tumor (In Vivo) of Compound a with Respect to Colon Carcinoma Cell Line MC38 Cancer-Bearing Model
The colon cancer cell line MC38 cells (National Cancer Institute) were cultured in Dulbecco's modified Eagle's minimum essential medium (DMEM) supplemented with 10% Fetal Bovine Serum (FBS). MC38 subcutaneous cancer-bearing mice were subsequently prepared by subcutaneously transplanting MC38 cells on the back of C57BL/6J mice (female, Charles river, Japan). After confirming the engraftment of the tumor, the change in the tumor volume of each of the group (COMPOUND A 30 mg/kg bid) in which hemifumarate of the compound A, which is a test compound, dissolved in 0.5% of methyl cellulose is orally administered at a dose of 30 mg/kg (in terms of free form) twice a day for 17 days, the group (COMPOUND A 60 mg/kg qd) in which hemifumarate of the compound A is orally administered at a dose of 60 mg/kg (in terms of free form) once a day for 17 days, and the control group in which the compound A is not administered, was measured at a frequency of twice a week.

malignant melanoma = details: first-line, malignant melanoma patients; cited from earlier work

| Compound | tumor volume [1] | proportion of the number of CD8+ cells in CD45+ and CD3+ cells in a tumor (CD4+ and CD8+ T cells; individuals qd-2 and qd-3 in which tumor growth was suppressed, FIG. 5) | proportion of the number of CD4+ cells in CD45+ and CD3+ cells in spleen (CD4+ and CD8+ T cells; three mice vs three controls, FIG. 3) | proportion of the number of CD8+ cells in CD45+ and CD3+ cells in spleen (CD4+ and CD8+ T cells; three mice vs three controls, FIG. 4) | tumor volume ([2]; 30 mg/kg (free form) twice a day for 17 days) | tumor volume ([2]; 60 mg/kg (free form) once a day for 17 days) | overall survival extended, share of the nivolumab group (malignant melanoma) [%] |
| --- | --- | --- | --- | --- | --- | --- | --- |
| CCc1nc(C(N)=O)c(Nc2ccc(N3CCC(N4CCN(C)CC4)CC3)c(OC)c2)nc1NC1CCOCC1 [compound A, 6-ethyl-3-({3-methoxy-4-[4-(4-methylpiperazin-1-yl)piperidin-1-yl]phenyl}amino)-5-(tetrahydro-2H-pyran-4-ylamino)pyrazine-2-carboxamide] | the increase in the tumor volume was hardly observed | the increase of the number of CD8+ cells was observed | the increase in the number of CD4+ cells and CD8+ cells in spleen was observed | the increase in the number of CD4+ cells and CD8+ cells in spleen was observed | strong effect of suppressing the increase in the tumor volume | strong effect of suppressing the increase in the tumor volume |  |
| nivolumab: anti-PD-1 antibody marketed as a therapeutic agent for malignant melanoma and non-small cell lung cancer |  |  |  |  |  |  | 72.9 |
